The target of one assay is T1, PIP4K2C (Homo sapiens, UniProt Q8TBX8).
T1 sequence (Q8TBX8 1-421): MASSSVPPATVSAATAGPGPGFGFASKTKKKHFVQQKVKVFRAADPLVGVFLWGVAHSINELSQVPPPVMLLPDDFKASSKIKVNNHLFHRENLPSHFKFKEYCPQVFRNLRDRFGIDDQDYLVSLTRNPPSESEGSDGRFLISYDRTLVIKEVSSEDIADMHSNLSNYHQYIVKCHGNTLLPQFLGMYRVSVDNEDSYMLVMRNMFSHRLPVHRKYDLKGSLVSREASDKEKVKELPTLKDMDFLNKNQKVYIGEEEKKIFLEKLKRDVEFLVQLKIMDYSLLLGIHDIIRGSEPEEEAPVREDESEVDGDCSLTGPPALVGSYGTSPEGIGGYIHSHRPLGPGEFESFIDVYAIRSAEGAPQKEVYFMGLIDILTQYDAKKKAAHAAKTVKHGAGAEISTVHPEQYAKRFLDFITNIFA
Kind of assay: HiBiT PIP4K2C degradation assay in MOLT-4 cells (endogenous PIP4K2C C-terminally tagged with HiBiT). It counts as cell-based. Set-up: untagged in primary human PBMCs and monocyte-derived dendritic cells. Conditions: 6 hours of incubation time, rather than 24 hours; MOLT-4, top concentration 10 micromolar; read-out: HiBIT-degradation MOLT4 PIP4k2C DC50 (6 hours, marked *). From the text: Example B-2: HiBiT PIP4K2C degradation assay
Materials: MOLT-4, a human T lymphoblast cell line (see https://www.atcc.org/products/crl-1582, herein incorporated by reference in its entirety), was genetically engineered using CRISPR-Cas9 by Synthego Corporation (Redwood City, CA) to C-terminally tag endogenous PIP4K2C with HiBiT peptide. Following clonal selection, genotype was confirmed by Sanger sequencing. MO LT-4 were maintained using RPMI-1640 medium from Gibco (Grand Island, NY, catalog number 11875-085) supplemented with 10% fetal bovine serum (FBS) from VWR (Philadelphia, PA, catalog number 97068-085). For HiBiT assays the cells were resuspended in RPMI-1640 medium without phenol read from Gibco (Grand Island, NY, catalog number 11835-030) supplemented with 10% FBS. Nano-Glo® HiBiT Lytic Assay System was purchased from Promega (Madison, WI, Catalog number N3030). Cell culture flasks and 384-well microplates were purchased from Corning (Glendale, AZ).
To study PIP4K2C degradation, 384-well plates were plated with a 10-point dose response curve, 3-fold dilution, in duplicate with a top starting concentration of 10 micromolar. Subsequently 22,500 cells were added to each well and incubated at 37 C in 5% C02 for 24 hours or 6 hours. At the end of the incubation time, cells were treated with the Nano-Glo® HiBiT Lytic Detection System following the manufacturer's instructions. Luminescence was measured with a PHERAstar FSX plate reader (BMG Labtech, Cary, NC). The Levenberg-Marquardt algorithm was used to fit a Hill equation to dose-response data to calculate DC50 values (see Table 6).
For the compound `O=C1CCC(Nc2ccc(N3CCC(CN4CCC(C(=O)N[C@H]5CC[C@H](Nc6ncc(F)c(-c7cccc(-n8ccccc8=O)c7)n6)CC5)CC4)CC3)c(F)c2)C(=O)N1` (mixture of isomers) [Compound 433, 1-((1-(4-((2,6-dioxopiperidin-3-yl)amino)-2-fluorophenyl)piperidin-4-yl)methyl)-N-((1r,4r)-4-((5-fluoro-4-(3-(2-oxopyridin-1(2H)-yl)phenyl)pyrimidin-2-yl)amino)cyclohexyl)piperidine-4-carboxamide], the DC50 was below 500 nM.

`Cn1nc(C2CCC(=O)NC2=O)c2ccc(C3CCN(CCN4CCC(C(=O)N[C@H]5CC[C@H](Nc6ncc(F)c(-c7cccc(-n8ccccc8=O)c7)n6)CC5)CC4)CC3)cc21` (mixture of isomers) [Compound 534, 1-(2-(4-(3-(2,6-dioxopiperidin-3-yl)-1-methyl-1H-indazol-6-yl)piperidin-1-yl)ethyl)-N-((1r,4r)-4-((5-fluoro-4-(3-(2-oxopyridin-1(2H)-yl)phenyl)pyrimidin-2-yl)amino)cyclohexyl)piperidine-4-carboxamide]: the DC50 is below 500 nM.

The same assay, now with this note: 24 hours incubation, MOLT-4, top concentration 10 micromolar; read-out: HiBIT-degradation MOLT4 PIP4k2C 24 hours DC50.
Regarding `Cn1c(=O)n(C2CCC(=O)NC2=O)c2ccc(C3CCN(CCN4CCN(C(=O)[C@H]5CCC[C@@H](Nc6ncc(Cl)c(-c7cccc(-c8ccccc8)c7)n6)C5)CC4)CC3)cc21` (relative stereo) [Compound 49, cis-3-(5-(1-(2-(4-(3-((4-([1,1′-biphenyl]-3-yl)-5-chloropyrimidin-2-yl)amino)cyclohexane-1-carbonyl)piperazin-1-yl)ethyl)piperidin-4-yl)-3-methyl-2-oxo-2,3-dihydro-1H-benzo[d]imidazol-1-yl)piperidine-2,6-dione], the DC50 is below 500 nM.

With `Cn1c(=O)n(C2CCC(=O)NC2=O)c2ccc(C3CCN(CC(=O)N4CCN(C(=O)[C@H]5CCC[C@@H](Nc6ncc(Cl)c(-c7cccc(-c8ccccc8)c7)n6)C5)CC4)CC3)cc21` (relative stereo) [Compound 51, cis-3-(5-(1-(2-(4-(3-((4-([1,1′-biphenyl]-3-yl)-5-chloropyrimidin-2-yl)amino)cyclohexane-1-carbonyl)piperazin-1-yl)-2-oxoethyl)piperidin-4-yl)-3-methyl-2-oxo-2,3-dihydro-1H-benzo[d]imidazol-1-yl)piperidine-2,6-dione], the DC50 is below 500 nM.

For `Cn1c(=O)n(C2CCC(=O)NC2=O)c2ccc(C3CCN(CCC4CCN(C(=O)[C@H]5CCC[C@@H](Nc6ncc(Cl)c(-c7cccc(-c8ccccc8)c7)n6)C5)CC4)CC3)cc21` (relative stereo) [Compound 52, cis-3-(5-(1-(2-(1-(3-((4-([1,1′-biphenyl]-3-yl)-5-chloropyrimidin-2-yl)amino)cyclohexane-1-carbonyl)piperidin-4-yl)ethyl)piperidin-4-yl)-3-methyl-2-oxo-2,3-dihydro-1H-benzo[d]imidazol-1-yl)piperidine-2,6-dione], the DC50 is below 500 nM.

Turning to `O=C1CCC(N2Cc3cc(C4CCN(CC(=O)N5CCN(C(=O)[C@H]6CCC[C@@H](Nc7ncc(Cl)c(-c8cccc(-c9ccccc9)c8)n7)C6)CC5)CC4)ccc3C2=O)C(=O)N1` (relative stereo) [Compound 54, cis-3-(5-(1-(2-(4-(3-((4-([1,1′-biphenyl]-3-yl)-5-chloropyrimidin-2-yl)amino)cyclohexane-1-carbonyl)piperazin-1-yl)-2-oxoethyl)piperidin-4-yl)-1-oxoisoindolin-2-yl)piperidine-2,6-dione], the DC50 is below 500 nM.

For `O=C1CCC(Nc2ccc(C3CCN(CCN4CCN(C(=O)[C@H]5CCC[C@@H](Nc6ncc(Cl)c(-c7cccc(-c8ccccc8)c7)n6)C5)CC4)CC3)cc2)C(=O)N1` (relative stereo) [Compound 55, cis-3-((4-(1-(2-(4-(3-((4-([1,1′-biphenyl]-3-yl)-5-chloropyrimidin-2-yl)amino)cyclohexane-1-carbonyl)piperazin-1-yl)ethyl)piperidin-4-yl)phenyl)amino)piperidine-2,6-dione], the DC50 is 500 to 1000 nM.

For `O=C1CCC(Nc2ccc(C3CCN(CC(=O)N4CCN(C(=O)[C@H]5CCC[C@@H](Nc6ncc(Cl)c(-c7cccc(-c8ccccc8)c7)n6)C5)CC4)CC3)cc2)C(=O)N1` (relative stereo) [Compound 57, cis-3-((4-(1-(2-(4-(3-((4-([1,1′-biphenyl]-3-yl)-5-chloropyrimidin-2-yl)amino)cyclohexane-1-carbonyl)piperazin-1-yl)-2-oxoethyl)piperidin-4-yl)phenyl)amino)piperidine-2,6-dione], the DC50 is below 500 nM.

`Cn1c(=O)n(C2CCC(=O)NC2=O)c2ccc(C3CCN(C(=O)CN4CCN(C(=O)[C@H]5CCC[C@@H](Nc6ncc(Cl)c(-c7cccc(-c8ccccc8)c7)n6)C5)CC4)CC3)cc21` (relative stereo) [Compound 58, cis-3-(5-(1-(2-(4-(3-((4-([1,1′-biphenyl]-3-yl)-5-chloropyrimidin-2-yl)amino)cyclohexane-1-carbonyl)piperazin-1-yl)acetyl)piperidin-4-yl)-3-methyl-2-oxo-2,3-dihydro-1H-benzo[d]imidazol-1-yl)piperidine-2,6-dione]: the DC50 was below 500 nM.

As for `Cn1c(=O)n(C2CCC(=O)NC2=O)c2ccc(C3CCN(C(=O)CC4CCN(C(=O)[C@H]5CCC[C@@H](Nc6ncc(Cl)c(-c7cccc(-c8ccccc8)c7)n6)C5)CC4)CC3)cc21` (relative stereo) [Compound 59, cis-3-(5-(1-(2-(1-(3-((4-([1,1′-biphenyl]-3-yl)-5-chloropyrimidin-2-yl)amino)cyclohexane-1-carbonyl)piperidin-4-yl)acetyl)piperidin-4-yl)-3-methyl-2-oxo-2,3-dihydro-1H-benzo[d]imidazol-1-yl)piperidine-2,6-dione], the DC50 is below 500 nM.

Turning to `O=C1CCC(N2Cc3cc(C4CCN(C(=O)C5CCN(C(=O)[C@H]6CCC[C@@H](Nc7ncc(Cl)c(-c8cccc(-c9ccccc9)c8)n7)C6)CC5)CC4)ccc3C2=O)C(=O)N1` (relative stereo) [Compound 60, cis-3-(5-(1-(1-(3-((4-([1,1′-biphenyl]-3-yl)-5-chloropyrimidin-2-yl)amino)cyclohexane-1-carbonyl)piperidine-4-carbonyl)piperidin-4-yl)-1-oxoisoindolin-2-yl)piperidine-2,6-dione], the DC50 was below 500 nM.

For `O=C1CCC(N2Cc3cc(C4CCN(CCN5CCN(C(=O)[C@H]6CCC[C@@H](Nc7ncc(Cl)c(-c8cccc(-c9ccccc9)c8)n7)C6)CC5)CC4)ccc3C2=O)C(=O)N1` (relative stereo) [Compound 61, cis-3-(5-(1-(2-(4-(3-((4-([1,1′-biphenyl]-3-yl)-5-chloropyrimidin-2-yl)amino)cyclohexane-1-carbonyl)piperazin-1-yl)ethyl)piperidin-4-yl)-1-oxoisoindolin-2-yl)piperidine-2,6-dione], the DC50 is below 500 nM.

As for `O=C1CCC(N2Cc3cc(C4CCN(CCC5CCN(C(=O)[C@H]6CCC[C@@H](Nc7ncc(Cl)c(-c8cccc(-c9ccccc9)c8)n7)C6)CC5)CC4)ccc3C2=O)C(=O)N1` (relative stereo) [Compound 62, cis-3-(5-(1-(2-(1-(3-((4-([1,1′-biphenyl]-3-yl)-5-chloropyrimidin-2-yl)amino)cyclohexane-1-carbonyl)piperidin-4-yl)ethyl)piperidin-4-yl)-1-oxoisoindolin-2-yl)piperidine-2,6-dione], the 50% degradation concentration (DC50) is below 500 nM.

Regarding `O=C1CCC(N2Cc3cc(C4CCN(CC5CCN(C(=O)[C@H]6CCC[C@@H](Nc7ncc(Cl)c(-c8cccc(-c9ccccc9)c8)n7)C6)CC5)CC4)ccc3C2=O)C(=O)N1` (relative stereo) [Compound 63, cis-3-(5-(1-((1-(3-((4-([1,1′-biphenyl]-3-yl)-5-chloropyrimidin-2-yl)amino)cyclohexane-1-carbonyl)piperidin-4-yl)methyl)piperidin-4-yl)-1-oxoisoindolin-2-yl)piperidine-2,6-dione], the DC50 was below 500 nM.

As to `O=C1CCC(Nc2ccc(C3CCN(CCC4CCN(C(=O)[C@H]5CCC[C@@H](Nc6ncc(Cl)c(-c7cccc(-c8ccccc8)c7)n6)C5)CC4)CC3)cc2)C(=O)N1` (relative stereo) [Compound 64, cis-3-((4-(1-(2-(1-(3-((4-([1,1′-biphenyl]-3-yl)-5-chloropyrimidin-2-yl)amino)cyclohexane-1-carbonyl)piperidin-4-yl)ethyl)piperidin-4-yl)phenyl)amino)piperidine-2,6-dione], the DC50 is below 500 nM.
